The subject of assay [1] is Collectotrichum graminicola. The assay can be described thus: Fungal growth inhibition assay, C. graminicola. Type of assay: cell-based. The settings on record: Colletotrichum graminicola, 48 h. The procedure: (§1) Spores were isolated from previously sub-cultured plates of Botrytis cinerea, Phytophthora capsici, Fusarium moniliforme, Fusarium viguliforme, Collectotrichum graminicola, and Diplodia maydis. All spores were filtered and collected in a sterile glass bowl to isolate the spores from the mycelia. The isolation and sub-culture plate condition for each pathogen is described below.
Spore isolation for C. graminicola: A 1-2 week old oatmeal agar (pre-mix) plate was removed from 26° C. incubator with a light/dark 12 hour cycle and the mycelia were treated with 10-15 ml of filter sterilized distilled water. The mycelia were scraped to re-suspend the spores. The spores were then collected in a sterile filter bowl containing a piece of sterile cheesecloth and poured into a conical tube.
(§2) After spore isolation, pathogen spores were counted on a hemocytometer to calculate the spores/ml. In 17% V8 liquid media containing 3 g/L CaCO3, isolated spores were diluted to individual concentrations based on the growth curves at 48 hours of each pathogen. The spore concentrations for each pathogen were as follows: B. cinerea—10,000 sp/ml; P. capsici—300 sp/ml; F. monliforme—500 sp/ml; F. virguliforme—500 sp/ml; C. graminicola—3,000 sp/ml; and D. maydis—3,000 sp/ml.
(§3) Chemistry stocks were dissolved in DMSO at 2.5 mg/ml. Chemistry was diluted in a 96-well stock plate in five-fold dilutions to obtain a final concentration of 50, 10, and 2 ppm in vitro. The final concentration of the positive control after the five-fold dilutions was as follows: soraphen—0.5, 0.1, and 0.02 ppm. Negative controls on each plate included 2% DMSO, water containing spores and media, and a blank for background subtraction.
(§4) In a 96-well plate the spore solution, chemistries, and controls were combined to make the final solution concentrations mentioned above. Upon addition of the chemistry, an OD600 reading was done to assess chemical precipitation. The 96-well plates were incubated in plastic tubs containing wet paper towels under the following conditions, 25° C. in the dark for P. capsici and B. cinerea or 26° C. with light/dark cycle for C. graminicola, D. maydis, F. virguliforme, F. monliforme. Plate readings were repeated at 24 and 48 hrs. Visual ratings were performed at 24 and 48 hrs to check for precipitation and confirm efficacy. Visual and OD600 ratings of the chemistry at 48 hours were compared to the 2% DMSO control to determine the percent of pathogen growth inhibition.

For assay [2], the target named is Ustilago maydis acetyl CoA carboxylase (ACCase) (Ustilago maydis, UniProt A0A0D1DYD5). The assay can be described thus: ACCase enzymatic assay (coupled PK/LDH, NADH OD340). Type of assay: biochemical. The settings on record: read-out: ACCase Inhibitory Activity IC50. The procedure: Ustilago maydis acetyl CoA carboxylase (ACCase) was cloned, expressed, and purified as described (Weatherly et al, Biochem. J., 2004) and the test compounds were tested in a 96-well plate format. Primary in vitro screening consisted of obtaining dose response data at 100, 33, 10, and 1 μM inhibitor. Actives in the primary screen were re-tested to establish IC50 values.
Direct detection of the conversion of acetyl CoA to malonyl CoA by ACCase was not feasible, but during this process ATP is converted to ADP which allowed for detection through a standard reaction coupling with ADP recycling to the oxidation of NADH. Thus, ACCase activity was measured via kinetic OD340 measurements of the conversion of NADH to NAD in a coupled reaction involving the conversion of phosphoenolpyruvate (PEP) to lactate.
The complete 200 ul reaction mixture contained 52.5 mM HEPES (pH8), 2.625 mM MgCl2, 1 mM ATP, 0.525 mM DTT, 11 mM NaHCO3, 1% DMSO with or without inhibitor, 1× pyruvate kinase/lactate dehydrogenase (PK/LDH), 0.3 mM NADH, 0.5 mM PEP, and 5 μg ACCase. The reactions were incubated at 30° C. for 10 minutes and then initiated by the addition of 0.33 mM acetyl CoA. The initiated reactions were read immediately via plate reader at OD340 and kinetic readings were acquired every 20 s for 15 minutes while keeping the temperature at 30° C.
A slope of the kinetic curve was determined by using the 2 to 7 minute data which was then calculated as percent inhibition relative to the no inhibitor control.
The primary screens were conducted in duplicate and the IC50's conducted in triplicate. Averages were reported along with standard deviation calculation to generate error bars.
Each plate contained its own controls and consisted of a DMSO only control, 5-fold titration series of soraphen from 2 μM to 3.2 nM, and an ADP coupled reaction control. […]
A slope of the kinetic curve was determined by using the 2 to 7 minute data which was then calculated as percent inhibition relative to the no inhibitor control. Those compounds which had no significant PK/LDH inhibition at or above the IC50 in the ACCase assay, were considered to be valid modulators of only ACCase.

In assay [3] the test system is Diplodia maydis. The assay can be described thus: Fungal growth inhibition assay, D. maydis. Type of assay: cell-based. The settings on record: 48 h. The protocol: as §1
Spore isolation for D. maydis: A 3-4 week old PDA (pre-mix) plate was removed from 26° C. incubator with a light/dark 12 hour cycle and the mycelia were treated with 6-7 ml of sterile distilled water, scraped into a sterile petri dish, and smashed to open the pycnidia. The spores were then collected in a sterile filter bowl containing a fluted piece of filter paper and poured into a conical tube.
as §2, §3, §4

Assay [4] concerns Botrytis cinerea. Put plainly: Fungal growth inhibition assay, B. cinerea. The settings on record: 48 h. Type of assay: cell-based.
Source text: as §1
Spore isolation for B. cinerea: A 2-3 week old V8 (17%)+CaCO3 (3 g/L)+20 g agar plate was removed from room temperature and the mycelia were treated with 5-10 ml of filter sterilized Triton X 100 (0.05%). The mycelia were scraped to re-suspend the spores. The spores were then collected in a sterile filter bowl containing a fluted piece of filter paper and poured into a conical tube.
as §2, §3
In a 96-well plate the spore solution, chemistries, and controls were combined to make the final solution concentrations mentioned above. Upon addition of the chemistry, an OD600 reading was done to assess chemical precipitation. […] Plate readings were repeated at 24 and 48 hrs. […]

Sequence of Ustilago maydis acetyl CoA carboxylase (ACCase) (A0A0D1DYD5 1-2185): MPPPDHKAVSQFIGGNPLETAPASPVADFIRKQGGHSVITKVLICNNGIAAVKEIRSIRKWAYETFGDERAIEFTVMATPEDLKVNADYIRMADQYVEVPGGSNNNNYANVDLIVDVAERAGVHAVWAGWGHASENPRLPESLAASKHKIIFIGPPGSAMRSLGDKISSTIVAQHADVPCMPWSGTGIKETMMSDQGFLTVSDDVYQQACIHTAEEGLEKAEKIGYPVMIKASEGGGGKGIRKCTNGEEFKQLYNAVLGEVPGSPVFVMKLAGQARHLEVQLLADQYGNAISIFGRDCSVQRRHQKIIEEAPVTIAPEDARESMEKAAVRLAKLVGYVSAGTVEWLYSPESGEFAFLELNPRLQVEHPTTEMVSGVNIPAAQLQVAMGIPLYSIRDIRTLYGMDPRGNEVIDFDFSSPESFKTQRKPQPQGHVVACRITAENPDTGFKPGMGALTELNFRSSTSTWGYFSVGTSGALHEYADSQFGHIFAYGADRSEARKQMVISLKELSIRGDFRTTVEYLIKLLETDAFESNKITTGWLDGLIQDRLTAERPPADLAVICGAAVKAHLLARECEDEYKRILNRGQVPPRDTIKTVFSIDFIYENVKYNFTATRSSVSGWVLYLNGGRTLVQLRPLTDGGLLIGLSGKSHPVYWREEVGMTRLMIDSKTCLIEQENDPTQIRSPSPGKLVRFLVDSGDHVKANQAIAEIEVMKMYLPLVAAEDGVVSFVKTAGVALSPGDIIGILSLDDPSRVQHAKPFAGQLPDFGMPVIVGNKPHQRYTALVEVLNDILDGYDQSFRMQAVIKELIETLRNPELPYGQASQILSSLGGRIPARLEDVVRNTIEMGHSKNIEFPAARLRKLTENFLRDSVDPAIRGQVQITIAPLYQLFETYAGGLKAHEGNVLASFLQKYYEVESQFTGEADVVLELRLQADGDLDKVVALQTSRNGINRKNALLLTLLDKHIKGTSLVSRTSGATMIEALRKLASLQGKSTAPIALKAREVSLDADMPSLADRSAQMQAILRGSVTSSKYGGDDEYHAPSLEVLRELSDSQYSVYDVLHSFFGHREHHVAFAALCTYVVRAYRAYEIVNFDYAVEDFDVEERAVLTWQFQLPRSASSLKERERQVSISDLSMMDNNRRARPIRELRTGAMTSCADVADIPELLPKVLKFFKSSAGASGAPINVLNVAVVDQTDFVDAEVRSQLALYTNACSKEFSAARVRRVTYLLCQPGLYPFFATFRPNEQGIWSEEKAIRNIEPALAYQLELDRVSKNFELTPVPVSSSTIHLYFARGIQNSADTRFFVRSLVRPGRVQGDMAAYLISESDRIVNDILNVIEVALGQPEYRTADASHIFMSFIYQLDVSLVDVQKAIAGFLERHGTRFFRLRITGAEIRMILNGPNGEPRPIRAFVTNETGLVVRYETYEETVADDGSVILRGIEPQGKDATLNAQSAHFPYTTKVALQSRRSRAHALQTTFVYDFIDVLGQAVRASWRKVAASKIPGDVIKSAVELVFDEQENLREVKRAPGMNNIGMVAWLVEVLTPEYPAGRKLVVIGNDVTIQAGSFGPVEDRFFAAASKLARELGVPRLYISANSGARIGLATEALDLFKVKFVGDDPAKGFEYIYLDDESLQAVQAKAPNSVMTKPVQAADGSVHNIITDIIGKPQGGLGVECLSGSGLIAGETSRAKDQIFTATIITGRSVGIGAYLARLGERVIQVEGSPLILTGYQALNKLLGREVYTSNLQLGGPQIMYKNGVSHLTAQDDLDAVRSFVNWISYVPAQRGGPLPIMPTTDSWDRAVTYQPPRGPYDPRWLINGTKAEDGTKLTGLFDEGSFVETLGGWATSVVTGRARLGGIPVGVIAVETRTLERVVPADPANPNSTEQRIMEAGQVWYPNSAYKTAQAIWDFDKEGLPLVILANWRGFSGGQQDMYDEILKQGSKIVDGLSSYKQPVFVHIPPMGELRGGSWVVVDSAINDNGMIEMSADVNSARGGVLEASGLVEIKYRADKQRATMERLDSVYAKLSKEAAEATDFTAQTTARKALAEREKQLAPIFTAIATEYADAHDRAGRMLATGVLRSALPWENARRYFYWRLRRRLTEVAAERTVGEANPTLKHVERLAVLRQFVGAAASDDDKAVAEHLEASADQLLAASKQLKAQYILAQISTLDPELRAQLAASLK

A word on the inhibition: it is the relative decrease from the control value, in per cent. A word on the IC50: it is the concentration needed to halve the response being measured. `O=C(O)Cc1ccc(-c2nc3ccccc3c(-c3ccccc3)c2Cl)s1` [Formula Ib-ii, 2-(5-(3-chloro-4-phenylquinolin-2-yl)thiophen-2-yl)acetic acid]: in assay [1], the inhibition at 2 ppm turned out to be 0%, the inhibition at 10 ppm came to 67% and the inhibition at 50 ppm was 78%. In addition, the IC50 in assay [2] stood at 110 nM. In assay [3], this compound had an inhibition at 2 ppm of 55% and an inhibition at 10 ppm of 70%.

In the case of `O=C(O)Cc1ccc(-c2cc(-c3ccccc3)c3ccccc3n2)s1` [Formula Ib-iv, 2-(5-(4-phenylquinolin-2-yl)thiophen-2-yl)acetic acid], the inhibition at 2 ppm in assay [1] stood at 0%; in assay [4] (2 ppm), 0%; in assay [3], 8%. The inhibition at 10 ppm in assay [1] was 53%; in assay [4] (10 ppm) it was 1%; in assay [3], 45%. Also, the figures for the inhibition at 50 ppm in assay [1], in assay [4] (50 ppm) and in assay [3] (50 ppm) were 97%, 42% and 89%, respectively. Also, the IC50 in assay [2] came to 145 nM.

Source of the values: patent publication US10995070B2, “Acetyl-CoA carboxylase modulators” (Monsanto Technology LLC, priority 2013, dated 2021).
